Experimental data published in PMC12203432, “Multicatalysis-Enabled Multicomponent Reactions Generate a PTP1B Inhibitor” (ACS Central Science, 2025).

What follows are compounds tested against T1, Human PTP1B (Homo sapiens, UniProt P18031) (assay: In vitro phosphatase activity assay (DiFMUP assay)). Details: not given.
T1 construct: His6 (N); made in house; host or cells: E. coli BL21 DE3
T1 sequence (P18031 1-435): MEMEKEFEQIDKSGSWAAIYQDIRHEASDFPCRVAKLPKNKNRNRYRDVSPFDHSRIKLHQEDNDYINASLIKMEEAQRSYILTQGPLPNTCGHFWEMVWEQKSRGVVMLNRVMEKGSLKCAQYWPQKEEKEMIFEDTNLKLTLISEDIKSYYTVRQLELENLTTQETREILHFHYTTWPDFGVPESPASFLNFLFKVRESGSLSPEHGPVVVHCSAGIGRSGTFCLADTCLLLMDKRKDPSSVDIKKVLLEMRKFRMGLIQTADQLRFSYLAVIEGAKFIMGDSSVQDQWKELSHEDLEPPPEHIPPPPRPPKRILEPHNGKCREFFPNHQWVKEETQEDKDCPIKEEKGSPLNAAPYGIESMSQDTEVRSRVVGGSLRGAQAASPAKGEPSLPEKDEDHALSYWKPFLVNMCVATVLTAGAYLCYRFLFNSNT
Type: biochemical
Source text: To determine the value of CHBOs in drug discovery, we constructed a synthetically accessible library of CHBOs based on the substrate scope of the reaction we newly developed. […] To explore the relationship between inhibitor activity of 3ak against PTP1B and the stereochemistry, two enantiomers (S, S)-3ak and (R, R)-3ak were synthesized and evalutated in the DiFUMP assay (Figure a). […]
Protein expression and purification7: Human PTP1B construct was subcloned into pET28a(+) vector, which contains an N-terminal His6-tag. BL21 DE3 E. coli cells were transformed as follows: 2 µL of plasmid(100 ng/µL) and 200 µL of DE3 cells were incubated for 30 min on ice, a 45 second heat shock at […], 2 min on ice, recovery with 800 µL SOC for 1 h at 37 ℃ followed by plating on a Kanamycin agar plate (50µg/mL).One colony was picked and used to inoculate 10 mL of LB media supplemented with kanamycin (50µg/mL).When the culture reached OD600 = 0.6, 10mL were transferred to one liter of LB media supplemented with Kanamycin (50 µg/mL) and grown at 37 ℃ to an OD600 = 0.6. Media is transferred to a 16 ℃ incubator. Then, the media was supplemented with 500 µM Isopropyl β-D-1-thiogalactopyranoside (IPTG) at OD600 = 0.8 and incubated for 16 h. Cells were centrifuged (4000 rpm, 20 min) and liquid was decanted. Cells were resuspended in lysis buffer (50 mM HEPES, pH 7.4, 150 mM KCl, 5 mM MgCl2, 5% glycerol, 1 mM phenylmethane sulfonyl fluoride (PMSF), 2 mM 2-mercaptoethanol (β-met)). Cells were lysed in a cell crusher (pressure 1000 bar), the mixed products were collected, centrifuged (12000 rpm, 4°C, 20 min), and the supernatant was left to discard the precipitate. The nickel column was first equilibrated with equilibration solution, and then the protein supernatant was up-sampled twice to bind the protein. The proteins were then gradually eluted with imidazole (10, 20, 60, 200 mM imidazole).
The target protein-containing fractions confirmed by SDS PAGE were placed in […] MWCO protein ultrafiltration tubes and the imidazole were replaced with dialysis buffer (20 mM HEPES, 150 mM KCl, 1 mM MgCl2). After the imidazole was removed cleanly, an equal volume of glycerol was added as a protective solution. When concentration was determined to be greater than or equal to 1 mg /mL, protein was frozen with liquid nit rogen. Protein was then stored in a -80 ℃ freezer.
In Vitro Phosphatase Activity Assays8:Incubate 1 nM purified PTP1B protein with positive control or compound to be tested in reaction buffer (25 mM Bis-Tris propane pH 7.5, […]
50 mM NaCl, 2 mM EDTA, 2 mM DTT) for 10 min at 37°C in a total volume of 90 μL. Add 10 μL of substrate buffer containing DiFMUP (final concentration of 10 μM) to the reaction buffer […]
(§1) The fluorescence intensity at 455 nm was read using a multifunctional reader with 358 nm as the excitation light, and the measured fluorescence value was used to calculate the inhibition rate of the enzyme activity by the sample over the value of the blank wells. The IC50 values of the compounds were calculated by Graphpad Prism 7.0, using a non-linear fit of the inhibition rate to the concentration of the inhibitor. […]

Structure (SMILES)	IC50 [µM]
O=C1O[C@@H]([C@@]2(O)C(=O)N(Cc3ccccc3)c3ccccc32)C=C1c1ccccc1 [6a]	10 to 30
O=C1OC(C2(O)C(=O)N(Cc3ccccc3)c3cccc(Br)c32)C=C1c1ccc2c(c1)OCO2 (stereo not drawn) [6ah]	0.29 to 1.58
CC1CCC(C(C)C)C(OC(=O)c2ccc(C3=C(c4ccccc4)C(=O)OC3C3(O)C(=O)Nc4ccccc43)cc2)C1 (stereo not drawn) [6au]	0.29 to 1.58
O=C1O[C@@H]([C@@]2(O)C(=O)N(Cc3ccccc3)c3cccc(Cl)c32)C=C1c1ccccc1 [6d]	10 to 30
O=C1O[C@@H]([C@@]2(O)C(=O)N(Cc3ccccc3)c3cccc(Br)c32)C=C1c1ccc2ccccc2c1 [(R, R)-3ak]	3.31 ± 0.2
O=C1O[C@H]([C@]2(O)C(=O)N(Cc3ccccc3)c3cccc(Br)c32)C=C1c1ccc2ccccc2c1 [(S, S)-3ak]	0.81 ± 0.1

Same assay, conditions: DiFMUP assay

Structure (SMILES)	potency relative to the enantiomer (R, R)-3ak [fold]
O=C1O[C@H]([C@]2(O)C(=O)N(Cc3ccccc3)c3cccc(Br)c32)C=C1c1ccc2ccccc2c1 [(S, S)-3ak]	3

Same assay, conditions: DiFMUP assay at room temperature; positive control ABBV-CLS-484, negative control DMSO

Structure (SMILES)	PTP1B lC50 [µM]
Cc1ccc(C2=C[C@H]([C@@]3(O)C(=O)N(Cc4ccccc4)c4cccc(Br)c43)OC2=O)cc1 [6ac]	9.13 ± 0.62
COc1ccc(C2=C[C@H]([C@@]3(O)C(=O)N(Cc4ccccc4)c4ccccc43)OC2=O)cc1 [6ad]	7.82 ± 1.44
COc1ccc(C2=C[C@H]([C@@]3(O)C(=O)N(Cc4ccccc4)c4cccc(Br)c43)OC2=O)cc1 [6ae]	11.17 ± 2.87
COc1ccc(C2=C[C@H]([C@@]3(O)C(=O)N(Cc4ccccc4)c4cccc(Br)c43)OC2=O)cc1OC [6ai]	22.65 ± 0.75
O=C1O[C@@H]([C@@]2(O)C(=O)Nc3ccccc32)C(c2ccccc2)=C1c1ccccc1 [6am]	4.03 ± 0.45
O=C1O[C@@H]([C@@]2(O)C(=O)Nc3ccccc32)C=C1c1ccccc1 [6b]	6.93 ± 0.77
O=C1O[C@@H]([C@@]2(O)C(=O)N(Cc3ccccc3)c3cccc(I)c32)C=C1c1ccccc1 [6f]	8.17 ± 1.06
Cc1ccc2c(c1Br)[C@@](O)([C@H]1C=C(c3ccccc3)C(=O)O1)C(=O)N2Cc1ccccc1 [6g]	8.13 ± 0.06
O=C1O[C@@H]([C@@]2(O)C(=O)N(Cc3ccccc3)c3ccc(Cl)cc32)C=C1c1ccccc1 [6j]	15.17 ± 1.02
COc1ccc2c(c1)[C@@](O)([C@H]1C=C(c3ccccc3)C(=O)O1)C(=O)N2Cc1ccccc1 [6l]	21.65 ± 1.48
COc1ccc2c(c1)N(Cc1ccccc1)C(=O)[C@]2(O)[C@H]1C=C(c2ccccc2)C(=O)O1 [6p]	8.23 ± 0.91
O=C1O[C@@H]([C@@]2(O)C(=O)N(Cc3ccc(C(=O)NC45CC6CC(CC(C6)C4)C5)cc3)c3cccc(Br)c32)C=C1c1ccccc1 [6s]	2.11 ± 0.22
CC1(C)[C@H]2CC=C(CCOC(=O)c3ccc(CN4C(=O)[C@](O)([C@H]5C=C(c6ccccc6)C(=O)O5)c5c(Br)cccc54)cc3)[C@@H]1C2 [6u]	0.29 ± 0.02

Same assay, conditions: DiFMUP assay at room temperature; positive control ABBV-CLS-484, negative control DMSO; read-out: PTP1B lC50

Structure (SMILES)	IC50 [µM]
Cc1ccc(C2=C[C@H]([C@@]3(O)C(=O)N(Cc4ccccc4)c4ccccc43)OC2=O)cc1 [6ab]	6.68 ± 0.88
O=C1O[C@@H]([C@@]2(O)C(=O)N(Cc3ccccc3)c3cccc(Br)c32)C=C1c1ccccc1 [6e]	2.1 ± 0.31
O=C1O[C@@H]([C@@]2(O)C(=O)N(Cc3ccccc3)c3ccc(Cl)c(Cl)c32)C=C1c1ccccc1 [6i]	3.02 ± 0.22

Same assay, conditions: DiFMUP assay; values in text and figure

Structure (SMILES)	IC50 against PTP1B
O=C1O[C@H]([C@]2(O)C(=O)N(Cc3ccccc3)c3cccc(Br)c32)C=C1c1ccc2ccccc2c1 [(S, S)-3ak]	submicromolar

Same assay, conditions: PTP1B lC50 (μM), DiFMUP assay at room temperature; positive control ABBV-CLS-484, negative control DMSO

Structure (SMILES)	IC50 [µM]
O=C1O[C@@H]([C@@]2(O)C(=O)N(Cc3ccccc3)c3ccccc32)C=C1c1ccccc1 [6a]	29.7 ± 0.56
O=C1OC(C2(O)C(=O)N(Cc3ccccc3)c3cccc(Br)c32)C=C1c1ccc2c(c1)OCO2 (stereo not drawn) [6ah]	0.92 ± 0.18
CC1CCC(C(C)C)C(OC(=O)c2ccc(C3=C(c4ccccc4)C(=O)OC3C3(O)C(=O)Nc4ccccc43)cc2)C1 (stereo not drawn) [6au]	1.56 ± 0.24
O=C1O[C@@H]([C@@]2(O)C(=O)N(Cc3ccccc3)c3cccc(Cl)c32)C=C1c1ccccc1 [6d]	17.8 ± 1.2

Same assay, conditions: read-out: PTP1B lC50; DiFMUP assay at room temperature; positive control ABBV-CLS-484, negative control DMSO

Structure (SMILES)	IC50 [µM]
Cc1ccc2c(c1)C(O)(C1C=C(c3ccccc3)C(=O)O1)C(=O)N2Cc1ccccc1 (stereo not drawn) [6k]	9.08 ± 0.12

What follows are compounds tested on MB231 cells (assay: Cellular anti-cancer immunity assay (cancer cell growth inhibition with or without IFNγ, CCK8)). Details: MB231 cell line; 0.5 ng/ml IFNγ or medium alone; 3 days.
Type: cell-based
Source text: We further evaluated (S, S)-3ak with a cellular anticancer immunity assay. The assay measures the inhibition of cancer cell growth by compounds with or without cytokine IFNγ. , The synergy of testing compounds and IFNγ in inhibiting cancer cells implicates the testing compound contributes anticancer immunity. The synergy index is defined by the formula index = (IC50 ^IFNγ– – IC50 ^IFNγ+)/IC50 ^IFNγ+. […] In other words, we identified (S, S)-3ak as a promising PTP1B inhibitor, preparing for the coming hit-lead-candidate optimization.
as §1, with “50 mM NaCl, 2 mM EDTA, 2 mM DTT) for 10 min at 37°C in a total volume of 90 μL. […] The fluorescence” for “The fluorescence”
Cellular anti-cancer immunity assay9: MB231 cells were seeded at a density of 5000 cells per well in a 96-well plate and incubated at 37 °C. […] PTP1B inhibitors, including Osunprotafib as the positive control, were added, and cell confluence was monitored for 3 days. […]

Structure (SMILES)	synergy index = (IC50 IFNγ− – IC50 IFNγ+)/IC50 IFNγ+
O=C1O[C@H]([C@]2(O)C(=O)N(Cc3ccccc3)c3cccc(Br)c32)C=C1c1ccc2ccccc2c1 [(S, S)-3ak]	3.49
